In ChEMBL document CHEMBL1140378, “Fast small molecule similarity searching with multiple alignment profiles of molecules represented in one-dimension” (J Med Chem, 2005) one finds IC50 data, which are given here for 2 molecules.

The target of test [1] is Mitogen-activated protein kinase 14 (Homo sapiens, UniProt Q16539). Briefly: Inhibitory activity against Mitogen-activated protein kinase 14, p38-alpha; No activity.
In test [2] the target is T1, Glucagon receptor (Homo sapiens, UniProt P47871). Briefly: Antagonist activity against glucagon receptor. Type of test: functional.
T1 sequence (P47871 whole entry): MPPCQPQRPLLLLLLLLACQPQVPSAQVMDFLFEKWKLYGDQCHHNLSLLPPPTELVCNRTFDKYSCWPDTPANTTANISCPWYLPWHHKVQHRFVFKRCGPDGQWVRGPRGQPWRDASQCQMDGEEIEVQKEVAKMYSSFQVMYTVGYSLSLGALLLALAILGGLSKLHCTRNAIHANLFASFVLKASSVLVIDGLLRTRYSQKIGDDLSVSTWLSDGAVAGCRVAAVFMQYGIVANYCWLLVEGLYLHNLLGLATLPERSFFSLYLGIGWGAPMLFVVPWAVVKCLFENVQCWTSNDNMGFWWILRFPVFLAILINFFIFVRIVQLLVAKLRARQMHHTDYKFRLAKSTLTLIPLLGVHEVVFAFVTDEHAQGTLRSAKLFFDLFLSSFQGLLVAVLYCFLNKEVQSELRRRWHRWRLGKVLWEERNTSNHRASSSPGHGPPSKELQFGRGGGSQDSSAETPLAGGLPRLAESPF
For test [3], the target named is T1, Glucagon receptor. Briefly: Antagonist activity against glucagon receptor; […]. In kind it is functional.

Chain of Mitogen-activated protein kinase 14 (Q16539 whole entry): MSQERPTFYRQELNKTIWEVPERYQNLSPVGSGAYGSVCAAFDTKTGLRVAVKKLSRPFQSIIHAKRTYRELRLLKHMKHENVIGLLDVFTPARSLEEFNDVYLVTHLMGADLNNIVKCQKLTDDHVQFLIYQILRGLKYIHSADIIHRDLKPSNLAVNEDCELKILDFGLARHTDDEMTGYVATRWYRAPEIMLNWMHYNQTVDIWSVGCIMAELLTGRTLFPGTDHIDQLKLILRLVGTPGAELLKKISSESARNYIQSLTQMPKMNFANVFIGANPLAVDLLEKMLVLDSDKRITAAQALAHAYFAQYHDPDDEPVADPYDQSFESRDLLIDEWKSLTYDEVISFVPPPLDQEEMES

Regarding `CC(C)c1cc(-c2ccc(Cl)cc2)[nH]c1-c1ccncc1`, the IC50 (commonly the point on the concentration scale where inhibition reaches its midpoint) in test [1] was “Not Active”; on Glucagon receptor [2], 32 nM. Take `O=C(O)c1ccc(-c2cc(-c3ccc(F)cc3)c(-c3ccncc3)[nH]2)cc1`: the IC50 result against Glucagon receptor [3] is reported as “Not Active”.
